Data: publication PMC3192784, “A Potent Inhibitor of SIK2, 3, 3′, 7-Trihydroxy-4′-Methoxyflavon (4′-O-Methylfisetin), Promotes Melanogenesis in B16F10 Melanoma Cells” (PLoS ONE, 2011)

Columns and labels:
[1] = target: T1, SIK2 (salt inducible kinase 2) (Mus musculus, UniProt Q8CFH6); assay: in vitro kinase ELISA with GST-TORC2 peptide substrate; format: biochemical
T1 construct: GST-SIK2 expressed in COS-7 cells

[2] = target: T1, SIK2 (salt inducible kinase 2); assay: as above; format: biochemical; remark: listed apart in the source

T1 sequence (Q8CFH6 whole entry): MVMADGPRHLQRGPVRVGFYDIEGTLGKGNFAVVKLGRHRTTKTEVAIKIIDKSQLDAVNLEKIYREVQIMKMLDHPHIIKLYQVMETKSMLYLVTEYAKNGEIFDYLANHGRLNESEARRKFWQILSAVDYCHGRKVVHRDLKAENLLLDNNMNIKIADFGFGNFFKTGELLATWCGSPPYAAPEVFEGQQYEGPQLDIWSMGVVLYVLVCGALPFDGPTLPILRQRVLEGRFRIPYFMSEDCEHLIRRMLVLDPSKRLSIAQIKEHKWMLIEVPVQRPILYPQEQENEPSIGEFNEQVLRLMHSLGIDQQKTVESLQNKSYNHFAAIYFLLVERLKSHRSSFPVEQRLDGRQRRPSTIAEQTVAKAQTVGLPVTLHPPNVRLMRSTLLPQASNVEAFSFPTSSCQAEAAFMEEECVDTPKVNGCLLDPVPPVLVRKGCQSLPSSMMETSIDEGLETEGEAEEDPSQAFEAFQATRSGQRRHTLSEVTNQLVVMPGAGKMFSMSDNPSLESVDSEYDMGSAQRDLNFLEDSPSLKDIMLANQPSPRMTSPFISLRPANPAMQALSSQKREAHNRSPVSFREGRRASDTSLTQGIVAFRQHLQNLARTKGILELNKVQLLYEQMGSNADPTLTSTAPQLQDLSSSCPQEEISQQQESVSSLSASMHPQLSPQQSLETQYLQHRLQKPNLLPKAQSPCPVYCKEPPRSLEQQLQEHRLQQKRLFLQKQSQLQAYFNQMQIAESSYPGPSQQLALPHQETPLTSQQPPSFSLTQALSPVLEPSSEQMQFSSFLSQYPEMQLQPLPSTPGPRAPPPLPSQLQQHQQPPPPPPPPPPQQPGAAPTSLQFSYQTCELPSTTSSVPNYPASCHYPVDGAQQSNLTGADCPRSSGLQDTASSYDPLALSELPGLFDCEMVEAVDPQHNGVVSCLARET

Structure (SMILES) | in vitro kinase ELISA with GST-TORC2 peptide substrate [1] | IC50 [2] [nM]
COc1ccc(-c2cc(=O)c3c(O)cc(O)cc3o2)cc1O [diosmetin] | 50 to 500 nM | 
O=c1c(O)c(-c2ccc(O)c(O)c2)oc2cc(O)ccc12 [fisetin] | ~ 50 nM | 
O=c1cc(-c2ccc(O)c(O)c2)oc2cc(O)cc(O)c12 [luteolin] | efficiency of SIK2-kinase inhibition in vitro by their non-methylated cognates (fisetin > luteolin > quercetin) | 
O=c1c(O)c(-c2ccc(O)c(O)c2)oc2cc(O)cc(O)c12 [quercetin] |  | 500
